The source made the active and inactive calls.
What was measured:
[1] = NIH-3T3 fibroblast cytotoxicity, dose response, cytotoxicity control, cell-based, fluorescence, Alamar Blue, secondary assay (AID 2327); format: functional;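 also: NIH-3T3 mouse fibroblasts cultured with fluconazole at 8 µg/mL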
[2] = C. albicans growth with fluconazole, confirmation, fluorescence, retest (AID 2467); format: functional, cell-based
Albumin = Albumin (Bos taurus, UniProt P02769); assay: Counterscreen for inhibitors of T-cell receptor (TCR)-CD3 interaction: Fluorescence-based biochemical high throughput dose response assay to identify inhibitors of T-cell receptor (TCR)-CD3 interaction using a TAMRA-labeled BSA probe.; format: functional
Chain of Albumin (P02769 whole entry): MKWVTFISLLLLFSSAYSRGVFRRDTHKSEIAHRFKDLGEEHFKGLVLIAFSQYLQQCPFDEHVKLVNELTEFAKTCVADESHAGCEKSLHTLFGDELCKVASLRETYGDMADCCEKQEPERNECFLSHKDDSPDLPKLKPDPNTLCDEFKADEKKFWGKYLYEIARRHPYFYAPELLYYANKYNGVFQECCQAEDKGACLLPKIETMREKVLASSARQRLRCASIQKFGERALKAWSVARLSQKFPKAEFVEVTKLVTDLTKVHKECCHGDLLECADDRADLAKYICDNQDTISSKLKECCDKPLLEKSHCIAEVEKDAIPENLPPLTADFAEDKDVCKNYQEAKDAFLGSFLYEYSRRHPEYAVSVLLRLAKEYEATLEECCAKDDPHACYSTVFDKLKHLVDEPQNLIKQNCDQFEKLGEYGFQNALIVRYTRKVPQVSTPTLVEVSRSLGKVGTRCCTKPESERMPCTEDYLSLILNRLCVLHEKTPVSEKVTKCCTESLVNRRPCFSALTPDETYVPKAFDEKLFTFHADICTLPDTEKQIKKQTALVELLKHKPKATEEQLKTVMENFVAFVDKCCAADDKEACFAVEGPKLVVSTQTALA

Caspase-6 = target: T1, Caspase-6 (Homo sapiens, UniProt P55212); assay: human caspase-6 inhibitors, dose response, biochemical, VEID-R110 fluorescence, cherry-pick (AID 720632)
T1 sequence (P55212 whole entry): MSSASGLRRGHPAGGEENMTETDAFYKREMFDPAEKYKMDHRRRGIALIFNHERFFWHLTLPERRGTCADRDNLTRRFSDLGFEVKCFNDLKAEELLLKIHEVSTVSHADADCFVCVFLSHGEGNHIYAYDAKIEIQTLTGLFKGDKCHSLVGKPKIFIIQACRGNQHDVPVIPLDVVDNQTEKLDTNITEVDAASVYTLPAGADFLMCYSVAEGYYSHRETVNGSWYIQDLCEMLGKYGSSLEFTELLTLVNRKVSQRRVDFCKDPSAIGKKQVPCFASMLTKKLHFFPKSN

Caspase-7 = target: T2, Caspase-7 (Homo sapiens, UniProt P55210); assay: human caspase-7 inhibitors, dose response, selectivity assay for caspase-6 inhibitor project, biochemical, DEVD-R110 fluorescence, cherry-pick (AID 743295)
T2 sequence (P55210 whole entry): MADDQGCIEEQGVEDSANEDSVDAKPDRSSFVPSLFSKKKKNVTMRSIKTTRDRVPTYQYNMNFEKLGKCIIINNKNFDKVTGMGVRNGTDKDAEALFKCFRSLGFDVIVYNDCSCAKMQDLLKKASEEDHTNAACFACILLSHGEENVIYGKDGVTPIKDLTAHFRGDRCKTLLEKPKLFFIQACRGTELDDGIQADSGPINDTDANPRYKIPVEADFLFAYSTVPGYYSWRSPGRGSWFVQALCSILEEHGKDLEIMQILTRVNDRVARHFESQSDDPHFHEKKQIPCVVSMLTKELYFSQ

Caspase-8 = Caspase-8 (Homo sapiens, UniProt Q14790); assay: caspase-8 inhibition counter-screen, dose response, selectivity assay for caspase-6 inhibitor project, biochemical, Z-IETD-R110 fluorescence, cherry-picked samples (AID 743294)
Chain of Caspase-8 (Q14790 217-374 limits assumed): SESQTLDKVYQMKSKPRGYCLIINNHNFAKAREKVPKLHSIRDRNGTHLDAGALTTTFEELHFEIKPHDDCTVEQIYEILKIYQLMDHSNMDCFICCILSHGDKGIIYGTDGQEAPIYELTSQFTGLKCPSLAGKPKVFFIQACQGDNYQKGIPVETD
Chain of Caspase-8 (Q14790 385-479 limits assumed): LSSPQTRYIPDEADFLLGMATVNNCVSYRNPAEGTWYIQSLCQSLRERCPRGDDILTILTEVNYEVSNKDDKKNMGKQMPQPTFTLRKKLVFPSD

Protein Tat = target: T3, Protein Tat (Human immunodeficiency virus type 1 group M subtype B (isolate HXB2)(HIV-1), UniProt P04608); format: functional;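 also: tat binding to TAR RNA read out by fluorescence polarization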
T3 sequence (P04608 whole entry): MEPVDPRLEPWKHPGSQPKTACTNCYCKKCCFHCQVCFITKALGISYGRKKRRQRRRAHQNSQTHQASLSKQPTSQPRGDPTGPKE

[3] = T. cruzi growth inhibition in host cells, dose response, cell-based, plate reader, dry powder, set 2 (AID 652275); format: functional
[4] = target: Vascular endothelial growth factor receptor 2 (Homo sapiens, UniProt P35968); format: functional
Chain of Vascular endothelial growth factor receptor 2 (P35968 whole entry): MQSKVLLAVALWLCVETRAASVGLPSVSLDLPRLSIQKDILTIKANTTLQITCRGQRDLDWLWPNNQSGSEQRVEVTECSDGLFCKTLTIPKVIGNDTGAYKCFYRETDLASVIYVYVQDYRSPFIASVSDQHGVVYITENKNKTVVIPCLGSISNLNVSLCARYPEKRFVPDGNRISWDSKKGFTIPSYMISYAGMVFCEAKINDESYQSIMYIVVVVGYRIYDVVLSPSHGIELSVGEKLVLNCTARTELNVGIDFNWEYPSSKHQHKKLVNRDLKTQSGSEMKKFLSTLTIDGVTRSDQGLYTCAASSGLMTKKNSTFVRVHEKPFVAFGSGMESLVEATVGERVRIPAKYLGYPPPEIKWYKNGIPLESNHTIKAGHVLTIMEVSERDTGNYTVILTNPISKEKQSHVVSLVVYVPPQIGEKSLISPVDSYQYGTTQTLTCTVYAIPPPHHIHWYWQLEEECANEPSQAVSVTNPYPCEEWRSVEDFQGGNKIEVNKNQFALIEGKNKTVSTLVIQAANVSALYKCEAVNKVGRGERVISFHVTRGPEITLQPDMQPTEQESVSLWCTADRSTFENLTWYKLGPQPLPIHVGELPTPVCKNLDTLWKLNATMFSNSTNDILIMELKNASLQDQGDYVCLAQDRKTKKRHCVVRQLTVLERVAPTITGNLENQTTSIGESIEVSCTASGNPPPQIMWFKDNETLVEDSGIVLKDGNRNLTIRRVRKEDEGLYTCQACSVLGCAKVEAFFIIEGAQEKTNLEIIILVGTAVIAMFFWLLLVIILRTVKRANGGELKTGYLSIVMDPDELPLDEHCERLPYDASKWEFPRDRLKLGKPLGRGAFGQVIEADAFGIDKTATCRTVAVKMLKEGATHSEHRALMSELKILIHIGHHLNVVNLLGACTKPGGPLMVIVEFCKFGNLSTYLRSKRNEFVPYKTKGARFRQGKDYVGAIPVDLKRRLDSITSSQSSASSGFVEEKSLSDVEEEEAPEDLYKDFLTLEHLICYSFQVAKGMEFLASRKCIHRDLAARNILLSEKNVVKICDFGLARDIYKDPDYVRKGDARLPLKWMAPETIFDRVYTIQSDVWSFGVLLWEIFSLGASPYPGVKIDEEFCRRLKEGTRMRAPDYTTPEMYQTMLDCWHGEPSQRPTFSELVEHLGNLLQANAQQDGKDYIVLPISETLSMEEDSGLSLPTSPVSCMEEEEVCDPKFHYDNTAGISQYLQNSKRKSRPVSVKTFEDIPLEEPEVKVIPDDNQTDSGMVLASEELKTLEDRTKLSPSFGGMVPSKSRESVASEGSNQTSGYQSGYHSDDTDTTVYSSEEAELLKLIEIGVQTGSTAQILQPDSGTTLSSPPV

[5] = target: Rho-associated protein kinase 1 (Homo sapiens, UniProt Q13464); format: functional;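 also: measured within a broad kinome-wide panel profiling many kinases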
[6] = Late stage assay provider results from the probe development effort to identify inhibitors of the Plasmodium falciparum M18 Aspartyl Aminopeptidase (M18AAP): radiolabel-based cell-based dose response assay to identify compounds that inhibit P. falciparum growth in RBCs, Set 2..; format: functional
[7] = THP-1 cell cytotoxicity, dose response, cytotoxicity control for non-replicating M. tuberculosis project (AID 489025); format: functional
[8] = Vero E6 cell cytotoxicity, dose response, cytotoxicity control for non-replicating M. tuberculosis project, secondary assay (AID 492998); format: functional, VeroE6; conditions: Vero C1008
cells [9] = format: functional
cells [10] = format: functional, cell-based
[11] = target: T4, DNA repair protein RAD52 homolog (Homo sapiens, UniProt P43351); format: functional, biochemical
T4 sequence (P43351 whole entry): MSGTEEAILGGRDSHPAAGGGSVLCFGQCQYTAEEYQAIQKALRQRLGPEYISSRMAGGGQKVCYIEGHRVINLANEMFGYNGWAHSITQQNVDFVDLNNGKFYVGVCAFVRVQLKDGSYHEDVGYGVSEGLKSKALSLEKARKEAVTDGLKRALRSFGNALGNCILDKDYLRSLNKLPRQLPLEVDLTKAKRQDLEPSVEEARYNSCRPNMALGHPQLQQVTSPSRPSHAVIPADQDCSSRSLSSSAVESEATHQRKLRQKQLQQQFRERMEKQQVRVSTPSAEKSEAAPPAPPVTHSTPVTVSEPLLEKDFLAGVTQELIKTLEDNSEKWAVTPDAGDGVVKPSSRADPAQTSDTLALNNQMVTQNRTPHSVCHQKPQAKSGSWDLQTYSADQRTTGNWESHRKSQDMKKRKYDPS

cells [12] = format: functional, cell-based; remark: listed apart in the source
[13] = MITF Orthogonal Assay: SK-MEL-5 CTG Assay Measured in Cell-Based System Using Plate Reader - 2084-02_Inhibitor_Dose_DryPowder_Activity_Set7.; format: functional
[14] = MITF: Counter assay: A375 proliferation Measured in Cell-Based System Using Plate Reader - 2084-03_Inhibitor_Dose_DryPowder_Activity_Set8.; format: functional; conditions: A-375
[15] = target: T5, Neuropeptides B/W receptor type 1 (Homo sapiens, UniProt P48145); assay: Fluorescence-based dose response cell-based high throughput screening assay to identify antagonists of the G-protein coupled receptor 7 (GPR7). [Related pubchem assays: 1952 (Screening assay (GPR7 antagonists).), 1880 (Summary AID.)]; format: functional
T5 sequence (P48145 whole entry): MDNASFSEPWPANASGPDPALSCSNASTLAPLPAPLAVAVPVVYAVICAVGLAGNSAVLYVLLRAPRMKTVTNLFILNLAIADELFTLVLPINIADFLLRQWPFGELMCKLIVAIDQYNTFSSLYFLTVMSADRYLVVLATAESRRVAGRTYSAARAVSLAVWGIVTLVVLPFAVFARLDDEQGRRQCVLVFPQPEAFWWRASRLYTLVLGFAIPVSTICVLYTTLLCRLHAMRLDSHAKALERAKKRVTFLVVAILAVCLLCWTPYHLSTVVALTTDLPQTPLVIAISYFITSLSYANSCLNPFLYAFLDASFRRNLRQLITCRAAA

[16] = target: Melanin-concentrating hormone receptor 1 (Homo sapiens, UniProt Q99705); assay: Fluorescence-based counterscreen for antagonists of the G-protein coupled receptor 7 (GPR7): cell-based high throughput dose response assay to identify antagonists of the melanin-concentrating hormone receptor 1 (MCHR1).; format: functional
Chain of Melanin-concentrating hormone receptor 1 (Q99705 whole entry): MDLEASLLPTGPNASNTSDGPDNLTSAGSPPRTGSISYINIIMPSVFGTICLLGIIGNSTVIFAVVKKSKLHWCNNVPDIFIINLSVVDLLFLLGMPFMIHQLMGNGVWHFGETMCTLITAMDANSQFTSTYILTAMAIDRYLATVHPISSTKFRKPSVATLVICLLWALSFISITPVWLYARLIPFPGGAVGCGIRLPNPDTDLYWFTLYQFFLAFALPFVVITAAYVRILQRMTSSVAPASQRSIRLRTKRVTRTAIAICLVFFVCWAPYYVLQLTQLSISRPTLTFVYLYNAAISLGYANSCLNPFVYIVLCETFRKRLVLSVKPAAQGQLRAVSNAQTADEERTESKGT

[17] = inhibitors of intracellular T. cruzi replication, confirmation, NIH3T3 host cells, beta-gal luminescence (AID 2044); format: functional, cell-based;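 also: intracellular parasites grown in NIH/3T3 mouse fibroblasts as host cells; luminescent beta-galactosidase reporter signal from transgenic T. cruzi replicating inside host cells; inhibitors lower the luminescence signal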
[18] = cytotoxicity toward NIH3T3 fibroblasts, dose response, counter-screen, cell-based, ATP luminescence, mouse fibroblasts (AID 2010); format: functional;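 also: cells exposed to compound for about 90 hours before reading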
[19] = Luminescence Cell-Based Dose Retest to Confirm Inhibitors of Cancer Stem Cells. [Related pubchem assays (depositor defined):AID2717, AID2721]; format: functional; conditions: Homo sapiens
[20] = ADAM10 inhibitors, peptide cleavage, dose response, biochemical, QFRET (AID 743254);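 also: ADAM10 enzyme with the DM2 quenched FRET peptide as substrate; EDANS fluorescence gain as the protease cuts the substrate; inhibitor potency against ADAM10 proteolytic activity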
[21] = target: Disintegrin and metalloproteinase domain-containing protein 17 (Homo sapiens, UniProt P78536); assay: ADAM17 protease inhibitors, dose response, counter-screen for ADAM10 exosite inhibitor project, biochemical, quenched FRET substrate (AID 743253)
Chain of Disintegrin and metalloproteinase domain-containing protein 17 (P78536 whole entry, the tested form may be a part): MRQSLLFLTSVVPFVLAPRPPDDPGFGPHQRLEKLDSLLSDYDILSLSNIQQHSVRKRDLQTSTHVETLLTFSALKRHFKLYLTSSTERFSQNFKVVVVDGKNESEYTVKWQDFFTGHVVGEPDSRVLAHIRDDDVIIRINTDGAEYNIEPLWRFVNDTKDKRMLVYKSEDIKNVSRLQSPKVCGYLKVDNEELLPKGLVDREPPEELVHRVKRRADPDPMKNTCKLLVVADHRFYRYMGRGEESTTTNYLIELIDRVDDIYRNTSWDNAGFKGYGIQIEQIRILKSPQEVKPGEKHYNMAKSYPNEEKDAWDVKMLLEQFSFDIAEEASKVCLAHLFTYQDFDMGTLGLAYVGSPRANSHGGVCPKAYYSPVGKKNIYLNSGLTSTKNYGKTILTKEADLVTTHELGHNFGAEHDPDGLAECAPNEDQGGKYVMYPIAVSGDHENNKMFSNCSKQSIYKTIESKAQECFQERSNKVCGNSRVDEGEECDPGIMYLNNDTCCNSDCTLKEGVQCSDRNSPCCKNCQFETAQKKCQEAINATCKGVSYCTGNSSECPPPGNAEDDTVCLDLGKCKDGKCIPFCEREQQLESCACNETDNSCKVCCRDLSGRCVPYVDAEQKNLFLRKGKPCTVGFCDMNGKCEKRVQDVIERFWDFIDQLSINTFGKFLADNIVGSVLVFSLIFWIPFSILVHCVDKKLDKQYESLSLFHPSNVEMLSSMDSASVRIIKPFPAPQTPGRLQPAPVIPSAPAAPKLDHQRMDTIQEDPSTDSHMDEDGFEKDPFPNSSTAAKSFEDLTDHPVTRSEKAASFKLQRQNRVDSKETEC

[22] = target: Fructose-bisphosphate aldolase (Mycobacterium tuberculosis, UniProt P9WQA3); assay: Fluorescence-based biochemical high throughput dose response assay for inhibitors of the fructose-bisphosphate aldolase (FBA) of M. tuberculosis.; format: functional
Chain of Fructose-bisphosphate aldolase (P9WQA3 whole entry): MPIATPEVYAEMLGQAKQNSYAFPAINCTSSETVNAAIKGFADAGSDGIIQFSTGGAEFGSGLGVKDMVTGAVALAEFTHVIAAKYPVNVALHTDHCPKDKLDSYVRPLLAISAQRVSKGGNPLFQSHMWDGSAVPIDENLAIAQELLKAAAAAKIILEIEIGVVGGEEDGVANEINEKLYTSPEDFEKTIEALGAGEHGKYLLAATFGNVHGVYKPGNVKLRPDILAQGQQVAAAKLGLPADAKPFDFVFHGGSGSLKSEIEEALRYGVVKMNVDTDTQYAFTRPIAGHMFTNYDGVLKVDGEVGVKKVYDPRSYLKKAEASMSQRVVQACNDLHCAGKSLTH

[23] = target: G-protein coupled receptor 55 (Homo sapiens, UniProt Q9Y2T6); assay: GPR55 antagonists blocking LPI-driven arrestin recruitment, primary screen, imaging, U2OS, beta-arrestin-GFP, LPI agonist (AID 2013); format: functional;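 also: antagonist potency measured as reduced agonist-driven arrestin aggregation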
Chain of G-protein coupled receptor 55 (Q9Y2T6 whole entry): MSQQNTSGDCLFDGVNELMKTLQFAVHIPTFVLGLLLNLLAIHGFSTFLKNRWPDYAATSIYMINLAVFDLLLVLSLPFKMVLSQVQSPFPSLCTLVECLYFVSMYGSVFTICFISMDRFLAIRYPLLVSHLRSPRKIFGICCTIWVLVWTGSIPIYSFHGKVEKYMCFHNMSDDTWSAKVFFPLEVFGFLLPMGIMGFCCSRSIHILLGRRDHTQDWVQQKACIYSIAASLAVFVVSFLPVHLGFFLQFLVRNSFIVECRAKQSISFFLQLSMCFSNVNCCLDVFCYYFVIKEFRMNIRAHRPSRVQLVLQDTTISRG

Estrogen receptor = target: T6, Estrogen receptor (Homo sapiens, UniProt P03372);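 also: potency for inhibiting coactivator peptide recruitment to the receptor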
T6 sequence (P03372 whole entry): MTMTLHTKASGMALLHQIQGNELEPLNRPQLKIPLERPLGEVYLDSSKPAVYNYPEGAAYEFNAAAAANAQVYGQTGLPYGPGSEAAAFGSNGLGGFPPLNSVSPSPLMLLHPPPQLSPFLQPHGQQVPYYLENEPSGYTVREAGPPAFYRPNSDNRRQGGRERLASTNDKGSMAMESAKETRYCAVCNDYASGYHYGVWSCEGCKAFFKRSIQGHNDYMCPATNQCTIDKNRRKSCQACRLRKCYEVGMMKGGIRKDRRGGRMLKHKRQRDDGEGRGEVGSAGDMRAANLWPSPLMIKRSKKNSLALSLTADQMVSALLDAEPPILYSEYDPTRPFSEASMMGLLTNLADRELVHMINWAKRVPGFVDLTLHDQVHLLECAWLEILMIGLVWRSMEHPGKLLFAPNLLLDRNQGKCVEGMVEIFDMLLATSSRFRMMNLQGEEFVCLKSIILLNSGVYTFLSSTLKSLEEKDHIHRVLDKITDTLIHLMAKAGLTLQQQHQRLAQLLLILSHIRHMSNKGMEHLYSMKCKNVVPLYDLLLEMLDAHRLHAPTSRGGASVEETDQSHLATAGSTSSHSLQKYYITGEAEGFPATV

fMet-Leu-Phe receptor = fMet-Leu-Phe receptor (Homo sapiens, UniProt P21462); assay: FPR ligands, dose response (AID 519); format: functional
Chain of fMet-Leu-Phe receptor (P21462 whole entry): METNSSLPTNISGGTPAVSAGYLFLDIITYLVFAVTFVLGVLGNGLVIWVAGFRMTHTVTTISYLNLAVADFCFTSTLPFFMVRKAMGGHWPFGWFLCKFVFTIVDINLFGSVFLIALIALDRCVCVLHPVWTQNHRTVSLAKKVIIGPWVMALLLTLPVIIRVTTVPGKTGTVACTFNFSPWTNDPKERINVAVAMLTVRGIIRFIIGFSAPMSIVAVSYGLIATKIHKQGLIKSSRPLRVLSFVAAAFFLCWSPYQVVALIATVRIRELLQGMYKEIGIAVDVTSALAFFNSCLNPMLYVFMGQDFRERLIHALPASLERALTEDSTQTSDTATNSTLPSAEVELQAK

[24] = THP-1 cell cytotoxicity, dose response, cytotoxicity control for Vif-APOBEC3G degradation inhibitor project, THP-1 cells (AID 1117359); format: functional; conditions: Human immunodeficiency virus 1, THP-1
[25] = target: T7, Mannose-6-phosphate isomerase (Homo sapiens, UniProt P34949); assay: inhibitors of human PMI, primary screen, biochemical, fluorescence intensity, coupled assay (AID 1209)
T7 sequence (P34949 whole entry): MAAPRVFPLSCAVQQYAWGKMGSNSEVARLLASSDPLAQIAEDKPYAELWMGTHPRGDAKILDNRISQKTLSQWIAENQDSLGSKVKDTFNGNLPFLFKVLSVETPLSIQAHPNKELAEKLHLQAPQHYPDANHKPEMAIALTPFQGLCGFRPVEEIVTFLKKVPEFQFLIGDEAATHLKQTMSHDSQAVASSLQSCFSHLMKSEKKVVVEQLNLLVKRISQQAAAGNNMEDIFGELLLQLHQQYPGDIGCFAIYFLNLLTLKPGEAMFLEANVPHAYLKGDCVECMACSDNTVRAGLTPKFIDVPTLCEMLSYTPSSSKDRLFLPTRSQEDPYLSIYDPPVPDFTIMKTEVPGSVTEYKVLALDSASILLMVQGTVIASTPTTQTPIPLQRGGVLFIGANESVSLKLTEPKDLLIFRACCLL

[26] = target: T7, Mannose-6-phosphate isomerase; assay: human PMI inhibitors, high substrate, primary screen, biochemical, fluorescence intensity, high mannose 6-phosphate (AID 1220)

Cc1ccc(C(=O)NNC(=O)c2cc3ccccc3cc2O)cc1
EC50 [1]: > 160 µM (inactive)
EC50 [2]: 3.16 µM (active)
IC50 (Albumin): > 94.1 µM (inactive)

COc1ccc(NC(=O)CN(C)C(=O)c2cccc(-n3cccc3)c2)cc1
AC50 (Caspase-6): 4.5 µM (active)
AC50 (Caspase-7): > 70 µM (inactive)
AC50 (Caspase-8): 61.2 µM (active)
IC50 (Protein Tat): > 100 µM (active)

CC(C)N1C[C@H](C)[C@@H](CN(C)Cc2ccc(Oc3ccccc3)cc2)Oc2c(cccc2-c2cn(-c3ccncc3)nn2)C1=O
AC50 [3]: 0.0204 µM (active)

Oc1cc(O)cc(C=Cc2ccc(O)c(O)c2)c1
Ki [4]: > 2.51 µM (inactive)
Ki [5]: 2.51 µM (active)
AC50 (Caspase-6): 1.2 µM (active)
AC50 (Caspase-7): > 70 µM (inactive)
AC50 (Caspase-8): > 70 µM (inactive)

Oc1cccc(CCNc2ccnc3ccccc23)c1O
IC50 [6]: 2.7 µM (active)

Cc1cc(N/N=C/c2ccccc2O)c2ccccc2n1
CC50 [7]: 25.6 µM (active)
CC50 [8]: 17.6 µM (active)
IC50 (cells [9]): 7.92 µM (active)
IC50 (cells [10]): > 29.9 µM (inactive)
AC50 [11]: 5.36 µM (active)
EC50 (cells [12]): > 29.9 µM (inactive)

O=C1C=C(Nc2ccc3ccccc3c2)C(=O)c2ccccc21
AC50 [13]: 1.65 µM (active)
AC50 [14]: 49.4 µM (active)

CN(C(=O)CN1C(=O)C2C3CC(C(Br)C3Br)C2C1=O)C1CCCCC1 (configuration not stated)
IC50 [15]: 13.4 µM (not active)
IC50 [16]: > 43.8 µM (not active)

OC(COCC(F)(F)C(F)(F)C(F)(F)C(F)F)Cn1c2ccccc2c2ccccc21 (configuration not stated)
EC50 [17]: 1.71 µM (active)
EC50 [18]: > 60 µM (inconclusive)
AC50 [19]: 2.9 µM (active)
IC50 [20]: > 7.73 µM (active)
IC50 [21]: > 69.5 µM (inactive)

C=CCC[C@H](Cc1ccc(F)cc1)C(=O)OC[C@@H](Cc1c[nH]c2ccccc12)NC(=O)[C@@H](CC=C)CC(=O)N(CCO)Cc1ccccc1
AC50 [19]: 4.62 µM (active)
IC50 [20]: > 69.5 µM (inactive)
IC50 [21]: > 69.5 µM (inactive)

COc1ccccc1N1C(=O)NC(=O)/C(=C/c2ccc3c4c(cccc24)CC3)C1=O
IC50 [22]: 2.23 µM (active)

Cc1cccc(-c2ccc([C@H]3[C@H](CO)N4CCCCN(C(=O)c5ccncc5)C[C@@H]34)cc2)c1
AC50 [3]: 2.46 µM (active)

Cc1ccc(C)c(N(C(=O)c2snc(C(N)=O)c2N)C(C(=O)NCC2CCCO2)c2cccs2)c1 (configuration not stated)
IC50 [22]: > 1.11 µM (active)

CCCCn1c(NC(=O)CC)c(C#N)c2nc3ccccc3nc21
IC50 [23]: 1.55 µM (active)
IC50 (Estrogen receptor): 23.4 µM (active)
Ki (fMet-Leu-Phe receptor): 24.2 µM (inactive)

CC(=O)NN1C(=O)/C(=C\c2ccc(Br)o2)SC1=S
CC50 [24]: > 40 µM (active)

Cn1ncc2c(NNC(=O)c3ccc(Cl)cc3Cl)ncnc21
IC50 [25]: > 50 µM (not active)
IC50 [26]: > 50 µM (not active)

NCCNc1c2ccccc2nc2ccccc12
IC50 [6]: 0.5 µM (active)

From ChEMBL document CHEMBL1201862, “PubChem BioAssay data set” (2004)
